Results reported in patent US20020193441A1, “Prostanoid therapies for the treatment of glaucoma” (priority 2001, published 2002).

Tests used:
[1] = test system: patients with open-angle glaucoma or ocular hypertension; assay: Clinical studies of travoprost (six, nine and twelve month studies pooled): IOP in black v. non-black patients; type: in vivo, human; conditions: for Mean IOP (overall) / IOP change from baseline: combined over visit and time of day; for Mean IOP (overall): pooled; for IOP change from baseline: three studies pooled, intent-to-treat
Description: The ability of travoprost to lower IOP was evaluated in three separate clinical trials, each involving the evaluation of both a low (0.0015%) and a high (0.004%) concentration composition. The studies differed in length, one lasting six months (hereinafter “six month study”), one lasting nine months (hereinafter “nine month study”) and one lasting twelve months (hereinafter “twelve month study”). The twelve month study was a triple-masked, parallel group, primary therapy study of the safety and efficacy of travoprost 0.0015% and travoprost 0.004% compared to timolol 0.5% and latanoprost 0.005% in patients with open-angle glaucoma or ocular hypertension. The term triple-masked is synonymous with the ICH E3 definition of double-blind. Patients of any race and either sex with open-angle glaucoma (with or without dispersion or pseudoexfoliation component) or ocular hypertension were qualified to participate in the studies. Pursuant to the study protocol, one group received travoprost 0.0015% topical ocular solution and dropped one drop once-daily in each eye at 8:00 p.m. A second group received travoprost 0.004% topical ocular solution and dropped one drop, once-daily in each eye at 8:00 p.m. A third group received vehicle only (placebo) and dropped one drop, once-daily in each eye at 8:00 a.m. A fourth group received timolol 0.5% topical ocular solution and dropped one drop, twice-daily in each eye at 8:00 a.m. and 8:00 p.m. A fifth group received latanoprost 0.005% topical ocular solution and dropped one drop, once-daily in each eye at 8:00 p.m. For evaluation purposes, the primary efficacy variable was mean intraocular pressure (IOP) in patient's worse eye. Safety was based on ocular and systemic parameters including hyperemia, flare, iris color, visual acuity, slit-lamp examinations, endothelial cell density, pachymetry, blood pressure and pulse, laboratory assessments, dilated fundus examinations, automated perimetry and adverse events. Repeated measures analysis of variance was used to test differences among treatment groups and to calculate 95% confidence limits about the differences between groups. The six month study was a triple-masked, parallel group, primary therapy study of the safety and efficacy of travoprost 0.0015% and travoprost 0.004% compared to timolol 0.5% in patients with open-angle glaucoma or ocular hypertension. The term triple-masked is synonymous with the ICH E3 definition of double-blind. Patients of any race and either sex with open-angle glaucoma (with or without dispersion or pseudoexfoliation component) or ocular hypertension were qualified to participate in the studies. Pursuant to the study protocol, one group received travoprost 0.0015% topical ocular solution and dropped one drop once-daily in each eye at 8:00 p.m. A second group received travoprost 0.004% topical ocular solution and dropped one drop, once-daily in each eye at 8:00 p.m. A third group received vehicle only (placebo) and dropped one drop, once-daily in each eye at 8:00 a.m. A fourth group received timolol 0.5% topical ocular solution and dropped one drop, twice-daily in each eye at 8:00 a.m. and 8:00 p.m. For evaluation purposes, the primary efficacy variable was mean intraocular pressure (IOP) in patient's worse eye. Safety was based on ocular and systemic parameters including hyperemia, aqueous cells and flare, iris pigmentation, visual acuity, slit-lamp biomicroscopy, blood pressure and pulse, laboratory assessments, dilated fundus examinations, automated perimetry and adverse events. Repeated measures analysis of variance was used to test differences among treatment groups and to calculate 95% confidence limits about the differences between groups. The nine month study was a triple-masked, parallel group, primary therapy study of the safety and efficacy of travoprost 0.0015% and travoprost 0.004% compared to timolol 0.5% and latanoprost 0.005% in patients with open-angle glaucoma or ocular hypertension. […]

[2] = test system: black and non-black patients; assay: Dose-response evaluations: travoprost concentration and IOP response in black and non-black patients; type: in vivo, human
Source text: Dose-response studies were undertaken to evaluate the relationship between travoprost and IOP response in black and non-black patients. […] FIG. 1 depicts the relationship between log concentration and IOP for black patients versus non-black patients. For black patients, IOP went from approximately 28 mmHg at a concentration of 0.00009% travoprost to approximately 18.5 mmHg at 0.004% travoprost. For non-black patients, IOP went from approximately 23 mmHg at 0.00009% travoprost to approximately 18 mmHg at 0.004% travoprost. FIG. 2 depicts the relationship between log concentration and IOP change. IOP change went from approximately −1 mmHg to approximately −7.75 mmHg for black patients and from approximately −3.25 mmHg to approximately −7.25 mmHg for non-black patients. FIGS. 1 and 2 depict a comparison of IOP or IOP change to log concentration to illustrate the significance of the dose-response difference between the two groups. FIGS. 3 and 4 depict the same relationships using actual concentrations.

[3] = travoprost 0.0015%, black patients
[4] = travoprost 0.0015%, non-black patients
[5] = travoprost 0.004%, black patients
[6] = travoprost 0.004%, non-black patients

Compound: CC(C)OC(=O)CCC/C=C\C[C@@H]1[C@@H](/C=C/[C@@H](O)COc2cccc(C(F)(F)F)c2)[C@H](O)C[C@@H]1O [Travoprost, travoprost]
- Further IOP reduction when dose increased from 0.0015% to 0.004% ([1]; blacks): statistically significant further reduction
- Further IOP reduction when dose increased from 0.0015% to 0.004% ([1]; caucasians (non-blacks)): no further reduction
- Subgroup difference in mean IOP between black and non-black patients (analysis of variance) ([1]; travoprost 0.0015% analysis): No statistically significant subgroup differences
- Difference in IOP change from baseline between blacks and non-blacks ([1]; travoprost 0.0015% dose): no significant difference
- Mean IOP (combined over visit) ([1]; travoprost 0.0015%, black patients, 4 p.m.): 17.8 mmHg
- Mean IOP (combined over visit) ([1]; travoprost 0.0015%, black patients, 8 a.m.): 19.6 mmHg
- Mean IOP (combined over visit) ([1]; travoprost 0.0015%, black patients, 10 a.m.): 18.4 mmHg
- Mean IOP (overall) [1, 3]: 18.6 mmHg
- IOP change from baseline [1, 3]: −7.1 mmHg
- Mean IOP (combined over visit) ([1]; travoprost 0.0015%, non-black patients, 4 p.m.): 18.2 mmHg
- Mean IOP (combined over visit) ([1]; travoprost 0.0015%, non-black patients, 8 a.m.): 19.4 mmHg
- Mean IOP (combined over visit) ([1]; travoprost 0.0015%, non-black patients, 10 a.m.): 18.5 mmHg
- Mean IOP (overall) [1, 4]: 18.7 mmHg
- IOP change from baseline [1, 4]: −7.1 mmHg
- Subgroup difference in mean IOP between black and non-black patients (analysis of variance) ([1]; travoprost 0.004% analysis): significant subgroup difference
- Subgroup difference in mean IOP, black lower than non-black ([1]; travoprost 0.004%, 4 PM): 1.1 mmHg
- Subgroup difference in mean IOP, black lower than non-black ([1]; travoprost 0.004%, 8 AM): 0.8 mmHg
- Subgroup difference in mean IOP, black lower than non-black ([1]; travoprost 0.004%, 10 AM): 1.5 mmHg
- Mean IOP (combined over visit) ([1]; travoprost 0.004%, black patients, 4 p.m.): 16.8 mmHg
- Mean IOP (combined over visit) ([1]; travoprost 0.004%, black patients, 8 a.m.): 18.6 mmHg
- Mean IOP (combined over visit) ([1]; travoprost 0.004%, black patients, 10 a.m.): 16.8 mmHg
- Mean IOP (overall) [1, 5]: 17.4 mmHg
- IOP change from baseline [1, 5]: −8.1 mmHg
- Difference in mean IOP, black lower than non-black ([1]; travoprost 0.004%, combined (8 a.m., 10 a.m., and 4 p.m.) results): up to 1.5 mmHg
- Mean IOP (combined over visit) ([1]; travoprost 0.004%, non-black patients, 4 p.m.): 18.0 mmHg
- Mean IOP (combined over visit) ([1]; travoprost 0.004%, non-black patients, 8 a.m.): 19.3 mmHg
- Mean IOP (combined over visit) ([1]; travoprost 0.004%, non-black patients, 10 a.m.): 18.3 mmHg
- Mean IOP (overall) [1, 6]: 18.5 mmHg
- IOP change from baseline [1, 6]: −7.5 mmHg
- Difference in mean IOP, black lower than non-black ([1]; travoprost 0.004%, overall result): 1.1 mmHg
- IOP (FIG. 1) ([2]; 0.00009% travoprost, black patients): approximately 28 mmHg
- IOP (FIG. 1) ([2]; 0.00009% travoprost, non-black patients): approximately 23 mmHg
- IOP (FIG. 1) ([2]; 0.004% travoprost, black patients): approximately 18.5 mmHg
- IOP (FIG. 1) ([2]; 0.004% travoprost, non-black patients): approximately 18 mmHg
- Dose-response based on comparison slopes ([2]; black patients compared with non-black patients): much more pronounced dose-response
- IOP change (FIG. 2) ([2]; black patients, high end of concentration range ('to')): approximately −7.75 mmHg
- IOP change (FIG. 2) ([2]; black patients, low end of concentration range ('from')): approximately −1 mmHg
- Mean IOP versus dose ([2]; both race subgroups): reduced significantly with increasing dose
- IOP change (FIG. 2) ([2]; non-black patients, high end of concentration range ('to')): approximately −7.25 mmHg
- IOP change (FIG. 2) ([2]; non-black patients, low end of concentration range ('from')): approximately −3.25 mmHg
